Measurements: patent US5215964A, “Peptides useful in regulating the immune and nervous systems” (Immunobiology Research Institute, Inc., priority 1991, dated 1993)
Values belong to the compound of their own block, whether it stands above or below them. Ends that are not written are not given here. Peptide text beside a SMILES is read from it. * marks the point of attachment. Decanoyl = CCCCCCCCCC(=O)*

Legend:
MOLT-4 T cell line = experiment: Cyclic GMP assay, MOLT-4 cell line; format: cell-based, human; settings: positive = cyclic GMP greater than 2 standard deviations above parallel negative control; peptide 1, 10, 100 μg/mL
From the text: This assay measures the ability of a peptide of this invention to bind to the cell membrane receptor of the intact MOLT-4 cell and selectively stimulate production of cyclic GMP, as does human thymopoietin.
The MOLT-4 cell line was obtained from the American Type Culture Collection of Rockville, Md. MOLT-4 cells were freshly seeded and grown for 3 days with harvesting as described in T. Audhya et al, Arch. Biochem Biophys., 234: 167-177 (1984). The cells were washed 3 times in PBS and resuspended in RPMI 1640 at a concentration of […]; cells/ml and were allowed to equilibrate at 37° C. for 30 minutes before the addition of the test pentapeptides or control peptides, in 25 μl to yield a final concentration of 1, 10, and 100 μg/mL. The incubation was allowed to proceed in a shaking water bath for 4-5 minutes and was then terminated by addition of 1 ml ice-cold TCA (10 percent in H2 O).
The cells in TCA were homogenized and sonicated to release cyclic nucleotide. The suspension was centrifuged at 3000×g for 20 minutes at 4° C. The resulting precipitate was dissolved in 0.1N NaOH to determine the protein content. […]
A threshold activity was determined for each peptide tested. […] Test results were considered positive if the level of cyclic GMP was greater than […] that determined for the parallel negative control.

CEM T cell line = experiment: Cyclic GMP assay, CEM cell line; format: cell-based, human; settings: positive = cyclic GMP greater than 2 standard deviations above parallel negative control; peptide 1, 10, 100 μg/mL
γ TP receptor = experiment: Neuromuscular (electromyographic) assay; format: in vivo; settings: i.v. or s.c. in mice, electromyography 18 hours after administration
Protocol: The neuromuscular assay is performed to determine the effect, if any, of different peptides and dosages of peptides on the γ TP receptor according to the invention. This assay is carried out as follows. Various doses of a selected peptide of this invention, prepared as described in the preceding examples, are dissolved in normal saline and injected either intravenously (i.v.) or subcutaneously (s.c.) into mice (or other selected laboratory animals). The electromyographic assay is performed according to G. Goldstein et al, J. Jeurol. and Neurosurg. Physchiat., 31:453-459 (1968) 18 hours after administration of the peptide.
Mice of either sex, weighing […], are anesthetized with 150 μl of 5% sodium pentobarbital (Abbott Laboratories, Chicago, Ill.). The nerve is stimulated with a Grass S-48 stimulator and a Grass SIV-5A stimulus isolation unit (Grass Instrument Co., Quincy, Mass.) and the electromyographic response is recorded with a Tektronix storage oscilloscope-5111 coupled to a 5A21N differential amplifier and a 5B10N time base (Tektronix, Beaverton, Oreg.).
Groups of five or more mice are used for each experiment. […] The mean, standard deviation and statistical significance of differences between experimental animals and controls are assessed by one-way analysis of variance based on ratio. […]

in vitro = settings: rat, real gastrointestinal fluid or homogenate, pH 5.5
Protocol: (§1) A rat duodenum was opened and attached to a 3.5 mL diffusion cell [Crownglass, N.J.] with buffer in both chambers. The selected test peptide in phosphate buffer (pH 5.5) was applied to both the cells to a final concentration of 1 mg/mL, and samples were taken at 0, 2 and 4 hours. The aliquots were subjected to high performance liquid chromatography (HPLC) with ultraviolet detection at 220 nm. The solvent system for thymopentin was phosphate buffer and methanol.

[1] = Enzymatic stability, duodenum in diffusion cell; settings: for intact peptide: rat duodenum, phosphate buffer pH 5.5, 1 mg/mL
Protocol: as §1

Compound: CCCCCCCCCC(=O)N[C@@H](CCCNC(=N)N)C(=O)N1CCC[C@H]1C(=O)N[C@@H](CC(=O)O)C(=O)N1CCC[C@H]1C(=O)N[C@@H](Cc1ccccc1)C(N)=O [Decanoyl-Arg-Pro-Asp-Pro-Phe-NH2] (Decanoyl-RPDPF-NH2)
- inducing increased cGMP levels in the human MOLT-4 T cell line (β) (MOLT-4 T cell line): positive
- inducing increased cGMP levels in the human CEM T cell line (α) (CEM T cell line): positive
- thymopoietin/thymopentin-like results on the neuromuscular assay (γ) (γ TP receptor): γ-positive

- remaining at 2 h, 1 mg/mL (in vitro): ~100%
- remaining at 4 h, 1 mg/mL (in vitro): ~90%
Compound: Ac-RPDPF-NH2 [Acetyl-Arg-Pro-Asp-Pro-Phe-NH2]

Compound: Ac-RPTPF-NH2 [Acetyl-Arg-Pro-Thr-Pro-Phe-NH2]
- inducing increased cGMP levels in the human CEM T cell line (α) (CEM T cell line): positive

Compound: Ac-RPTPY-NH2 [Acetyl-Arg-Pro-Thr-Pro-Tyr-NH2]
- inducing increased cGMP levels in the human CEM T cell line (α) (CEM T cell line): positive

Compound: RKDVY [TP-5, thymopentin]
- intact peptide ([1]; 0 hours): 100%
- intact peptide ([1]; 4 hours): negligible
- remaining at 2 h, 1 mg/mL ([1]; rat, rat duodenum mounted in a diffusion cell, pH 5.5): 20%
